Patent publication US20110038885A1, “CHEMOKINE ANALOGS” (priority 2007, published 2011)
Numbered stars: 1 amine (or outer) side, 2 acyl side, 3 side chain; on linkers, the order of the positions; unused ones are H or OH. Bridge positions count the residues as written; N and C are the ends. Square brackets hold non-standard residues; d marks the D form. Side chains are listed from the residue outwards. Peptide text beside a SMILES is read from it. * marks the point of attachment. γGlu = O=C(O)[C@H](CCC(=O)[*:2])N[*:1]; Diglycolyl = O=C(COCC(=O)[*:2])[*:1]; pGlu = O=C1CC[C@@H](C(=O)O)N1; Decanoyl = CCCCCCCCCC(=O)*; Isobutyryl = CC(C)C(=O)*; Orn = NCCC[C@H](N)C(=O)O; X5 = O=C(/C=C/c1ccccc1)*; Dab = NCC[C@H](N)C(=O)O; Dap = NC[C@H](N)C(=O)O; Piv = CC(C)(C)C(=O)*; Ahp = NCCCCCCC(=O)O; Butyryl = CCCC(=O)*; Ahx = NCCCCCC(=O)O

Test system: MCP-1
Test: In vitro chemotaxis (trans-well migration) v MCP-1
Format: cell-based, human
Method: To determine whether an agent inhibits a chemokine-induced activity, such as macrophage recruitment, varying amounts of the agent are mixed with cells in the presence of a known chemoattractant. For example, a range of known concentrations of an agent, e.g., a chemokine peptide, is incubated with a defined number (e.g., 10^4-10^6) of human THP-1 monocyte cells in individual wells of the top compartment of a trans-well plate. Chemokine, at a concentration known to cause significant migration of THP-1 cells in the trans-well migration assay, is placed in the lower compartment of a trans-well plate. Cells are then incubated at 37° C. for a period sufficient to allow migration, e.g., 4 hours. After incubation, the cells are gently removed from the top of the filter with a pipette, 20 μl of 20 mM EDTA in simple PBS is added into each top well, and incubated for 20 minutes at 4° C. The filter is carefully flushed with media using a gentle flow, and removed. A standard curve consisting of a two-fold dilution series of THP-1 cells (in 29 μl) is placed to accurately quantify the number of cells that have migrated. Migrated cells are stained with 3 μl of MTT stock dye solution which is added directly into each well (5 mg/ml in RPMI-1640 without phenol red) (Sigma Chemical Co., St. Louis, Mo., USA) and incubated at 37° C. for 4 hours. The media is carefully aspirated from each well, and the converted dye is solubilized by 20 μl of DMSO. Absorbance of converted dye is measured at a wavelength of 595 nm using an ELISA plate reader. The number of migrated cells in each well is then determined by interpolation of the standard curve (see also Imai et al., J. Biol. Chem., 272:15036, 1997). Any method suitable for counting cells can be used, for example, counting with a hemocytometer, incubation of the cells with MTT (see above), or FACS analysis. A negative control assay is also performed, using TGFβ or another non-chemokine chemoattractant (e.g., IL1β or TNFα). To assess whether the agent is cytotoxic, the same concentrations of agent are incubated with THP-1 cells. Agents which 1) are not cytotoxic at levels which inhibit migration, 2) are ineffective at inhibiting the negative control-induced migration, and 3) reduce or inhibit chemokine-induced THP-1 migration, are agents which fall within the scope of the invention.

Structure (SMILES) | EC50 [nM]
CC[C@H](C)[C@@H]1NC(=O)[C@H](Cc2c[nH]c3ccccc23)NC(=O)[C@H](CCCCN)NC(=O)[C@@H](NC(=O)[C@@H]2CCC(=O)N2)CSSC[C@@H](C(N)=O)NC(=O)[C@H](CCC(N)=O)NC1=O [Example 52, pGlu-c(Cys-Lys-Trp-Ile-Gln-Cys)-NH2] ([pGlu]CKWIQC-NH2; disulfide 2-7) | 25
CC[C@H](C)[C@@H]1NC(=O)[C@H](Cc2c[nH]c3ccccc23)NC(=O)[C@H](CCCCN)NC(=O)CSC[C@@H](C(N)=O)NC(=O)[C@H](CCC(N)=O)NC1=O [Example 65, c(Ac-Lys-Trp-Ile-Gln-Cys)-NH2] ({CH2CO}-KWIQC-NH2; thioether N-5) | 30
CC[C@H](C)[C@@H]1NC(=O)[C@H](Cc2c[nH]c3ccccc23)NC(=O)[C@H](CCCCN)NC(=O)[C@@H](NC(C)=O)CC(=O)NCC[C@@H](C(N)=O)NC(=O)[C@H](CCC(N)=O)NC1=O [Example 111, Ac-c(Asp-Lys-Trp-Ile-Gln-Dab)-NH2] (Ac-DKWIQ[Dab]-NH2; lactam 1-6) | 4
CC[C@H](C)[C@@H]1NC(=O)[C@H](Cc2c[nH]c3ccccc23)NC(=O)[C@H](CCCCN)NC(=O)[C@@H](NC(C)=O)CCCNC(=O)CC[C@@H](C(N)=O)NC(=O)[C@H](CCC(N)=O)NC1=O [Example 123, Ac-c(Orn-Lys-Trp-Ile-Gln-Glu)-NH2] (Ac-[Orn]KWIQE-NH2; lactam 1-6) | 7
CC[C@H](C)[C@@H]1NC(=O)[C@H](Cc2c[nH]c3ccccc23)NC(=O)[C@H](CCCCN)NC(=O)[C@@H](NC(C)=O)CCNC(=O)C[C@@H](C(N)=O)NC(=O)[C@H](CCC(N)=O)NC1=O [Example 118, Ac-c(Dab-Lys-Trp-Ile-Gln-Asp)-NH2] (Ac-[Dab]KWIQD-NH2; lactam 1-6) | 8
CC[C@H](C)[C@@H]1NC(=O)[C@H](Cc2c[nH]c3ccccc23)NC(=O)[C@H](CCCCN)NC(=O)[C@@H](NC(C)=O)CC(=O)NCCCC[C@@H](C(N)=O)NC(=O)[C@H](CCC(N)=O)NC1=O [Example 64, Ac-c(Asp-Lys-Trp-Ile-Gln-Lys)-NH2] (Ac-DKWIQK-NH2; lactam 1-6) | 20
CCCC(=O)N[C@@H]1CSSC[C@H](C(N)=O)NC(=O)[C@@H](CCCCN)NC(=O)[C@@H](Cc2c[nH]c3ccccc23)NC(=O)[C@@H](C(C)C)NC(=O)[C@@H](CCC(N)=O)NC1=O [Example 200, Butanyl-c(D-Cys-D-Gln-D-Val-D-Trp-D-Lys-D-Cys)-NH2] (Butyryl-[dC][dQ][dV][dW][dK][dC]-NH2; disulfide 1-6) | 30
CC[C@H](C)[C@@H]1NC(=O)[C@H](Cc2c[nH]c3ccccc23)NC(=O)[C@H](CCCCN)NC(=O)[C@@H](NC(C)=O)CNC(=O)CC[C@@H](C(N)=O)NC(=O)[C@H](CCC(N)=O)NC1=O [Example 121, Ac-c(Dap-Lys-Trp-Ile-Gln-Glu)-NH2] (Ac-[Dap]KWIQE-NH2; lactam 1-6) | 10
CC[C@H](C)[C@@H]1NC(=O)[C@H](Cc2c[nH]c3ccccc23)NC(=O)[C@H](CCCCN)NC(=O)[C@@H](NC(=O)C(C)(C)C)CSSC[C@@H](C(N)=O)NC(=O)[C@H](CCC(N)=O)NC1=O [Example 66, Trimethylacetyl-c(Cys-Lys-Trp-Ile-Gln-Cys)-NH2] (Piv-CKWIQC-NH2; disulfide 1-6) | 10
CC[C@H](C)[C@@H]1NC(=O)[C@H](Cc2c[nH]c3ccccc23)NC(=O)[C@@H](N)CSSC[C@@H](C(N)=O)NC(=O)[C@H](CCC(N)=O)NC1=O [Example 2, c(Cys-Trp-Ile-Gln-Cys)-NH2] (H-CWIQC-NH2; disulfide 1-5) | 7
CC[C@@H](C)[C@H]1NC(=O)[C@@H](CCC(N)=O)NC(=O)[C@H](NC(=O)C(C)C)CSSC[C@H](C(N)=O)NC(=O)[C@@H](CCCCN)NC(=O)[C@@H](Cc2c[nH]c3ccccc23)NC1=O [Example 193, Isobutyryl-c(D-Cys-D-Gln-D-Ile-D-Trp-D-Lys-D-Cys)-NH2] (Isobutyryl-[dC][dQ][dI][dW][dK][dC]-NH2; disulfide 1-6) | 25
CCCC(=O)N[C@H]1CSSC[C@@H](C(N)=O)NC(=O)[C@H](CCC(N)=O)NC(=O)[C@H]([C@@H](C)CC)NC(=O)[C@H](Cc2c[nH]c3ccccc23)NC(=O)[C@H](CCCCN)NC1=O [Example 56, nButyryl-c(Cys-Lys-Trp-Ile-Gln-Cys)-NH2] (Butyryl-CKWIQC-NH2; disulfide 1-6) | 25
CC[C@H](C)[C@@H]1NC(=O)[C@H](Cc2c[nH]c3ccccc23)NC(=O)[C@H](CCCCN)NC(=O)[C@H](NC(C)=O)CSSC[C@@H](C(N)=O)NC(=O)[C@H](CCC(N)=O)NC1=O [Example 79, Ac-c(D-Cys-Lys-Trp-Ile-Gln-Cys)-NH2] (Ac-[dC]KWIQC-NH2; disulfide 1-6) | 60
CCCCCCCCCC(=O)N[C@@H](CCC(=O)NCCCC[C@H](N)C(=O)N[C@H]1CSSC[C@@H](C(N)=O)NC(=O)[C@H](CCC(N)=O)NC(=O)[C@H]([C@@H](C)CC)NC(=O)[C@H](Cc2c[nH]c3ccccc23)NC(=O)[C@H](CCCCN)NC(=O)[C@H](CCC(N)=O)NC(=O)[C@H](CCCCN)NC(=O)[C@@H]2CCCN2C(=O)[C@H](CC(=O)O)NC(=O)[C@H](CC(C)C)NC1=O)C(=O)O [Example 173, Lys{Nε-[γ-Glu-(Nα-decanoyl)]}-c(Cys-Leu-Asp-Pro-Lys-Gln-Lys-Trp-Ile-Gln-Cys)-NH2] (H-K([γGlu-Decanoyl])CLDPKQKWIQC-NH2; disulfide 2-12) | > 1000
CC[C@H](C)[C@@H]1NC(=O)[C@H](Cc2c[nH]c3ccccc23)NC(=O)[C@H](CCCCN)NC(=O)[C@@H](NC(C)=O)CCCCNC(=O)C[C@@H](C(N)=O)NC(=O)[C@H](CCC(N)=O)NC1=O [Example 120, Ac-c(Lys-Lys-Trp-Ile-Gln-Asp)-NH2] (Ac-KKWIQD-NH2; lactam 1-6) | 8
CC[C@@H](C)[C@H]1NC(=O)[C@@H](CCC(N)=O)NC(=O)[C@H](NC(C)=O)CSSC[C@H](C(N)=O)NC(=O)[C@@H](CCCCN)NC(=O)[C@@H](Cc2c[nH]c3ccccc23)NC1=O [Example 190, Ac-c(D-Cys-D-Gln-D-Ile-D-Trp-D-Lys-D-Cys)-NH2] (Ac-[dC][dQ][dI][dW][dK][dC]-NH2; disulfide 1-6) | 30
N[C@@H](Cc1c[nH]c2ccccc12)C(=O)NCC(=O)NC1CCC(=O)NC1=O (stereo partly drawn) [Example 180, Trp-Gly-α-aminoglutaramide] | 25
CC[C@H](C)[C@@H]1NC(=O)[C@H](Cc2c[nH]c3ccccc23)NC(=O)[C@H](CCCCN)NC(=O)CCCCCCNC(=O)CC[C@@H](C(N)=O)NC(=O)[C@H](CCC(N)=O)NC1=O [Example 94, c(Aha-Lys-Trp-Ile-Gln-Glu)-NH2] ([Ahp]KWIQE-NH2; lactam N-6) | 10
CC[C@H](C)[C@@H]1NC(=O)[C@H](Cc2c[nH]c3ccccc23)NC(=O)[C@H](CCCCN)NC(=O)[C@@H](NC(=O)C(C)C)CCC(=O)NCC[C@@H](C(N)=O)NC(=O)[C@H](CCC(N)=O)NC1=O [Example 101, Isobutyryl-c(Glu-Lys-Trp-Ile-Gln-Dab)-NH2] (Isobutyryl-EKWIQ[Dab]-NH2; lactam 1-6) | 4
CC[C@H](C)[C@@H]1NC(=O)[C@H](Cc2c[nH]c3ccccc23)NC(=O)[C@H](CCCCN)NC(=O)[C@@H](NC(=O)/C=C/c2ccccc2)CSSC[C@@H](C(N)=O)NC(=O)[C@H](CCC(N)=O)NC1=O [Example 72, trans-Ciimamoyl-c(Cys-Lys-Trp-Ile-Gln-Cys)-NH2] (X5-CKWIQC-NH2; disulfide 1-6) | 8
CC[C@H](C)[C@@H]1NC(=O)[C@H](Cc2c[nH]c3ccccc23)NC(=O)[C@H](CCCCN)NC(=O)CCCCCNC(=O)C[C@@H](C(N)=O)NC(=O)[C@H](CCC(N)=O)NC1=O [Example 5, c(Ahx-Lys-Trp-Ile-Gln-Asp)-NH2] ([Ahx]KWIQD-NH2; lactam N-6) | 5
CC[C@H](C)[C@@H]1NC(=O)[C@H](Cc2c[nH]c3ccccc23)NC(=O)[C@H](CCCCN)NC(=O)[C@@H](NC(=O)C(C)C)CCC(=O)NCCCC[C@@H](C(N)=O)NC(=O)[C@H](CCC(N)=O)NC1=O [Example 103, Isobutyryl-c(Glu-Lys-Trp-Ile-Gln-Lys)-NH2] (Isobutyryl-EKWIQK-NH2; lactam 1-6) | 8
CC[C@H](C)[C@@H]1NC(=O)[C@H](Cc2c[nH]c3ccccc23)NC(=O)[C@H](CCCCN)NC(=O)[C@@H](NC(=O)C(C)C)CCCCNC(=O)CC[C@@H](C(N)=O)NC(=O)[C@H](CCC(N)=O)NC1=O [Example 109, Isobutyryl-c(Lys-Lys-Trp-Ile-Gln-Glu)-NH2] (Isobutyryl-KKWIQE-NH2; lactam 1-6) | 8
CC[C@H](C)[C@@H]1NC(=O)[C@H](Cc2c[nH]c3ccccc23)NC(=O)[C@H](CCCCN)NC(=O)COCC(=O)NC[C@@H](C(N)=O)NC(=O)[C@H](CCC(N)=O)NC1=O [Example 130, c(Diglycolyl-Lys-Trp-Ile-Gln-Dap)-NH2] (KWIQ[Dap]-NH2; linker N-5 via Diglycolyl) | 50
